Measurements from patent US12559529B2, “NPY2 receptor agonists” (Boehringer Ingelheim International GmbH, priority 2019, dated 2026).
*1 amine or outer side, *2 acyl side, *3 side chain or, on linkers, in order; H or OH if unused. Where a SMILES comes first, the peptide text is derived from it. Side-chain parts run from the residue outwards. The star is where a group is joined. C18 diacid = O=C(O)CCCCCCCCCCCCCCCCC(=O)*; γGlu = O=C(O)[C@H](CCC(=O)[*:2])N[*:1]; Isovaleryl = CC(C)CC(=O)*; AEEA = NCCOCCOCC(=O)O

Molecular target: T1, Human Neuropeptide Y2 Receptor (Homo sapiens, UniProt P49146)
T1 construct: purchased CHEMICON HTS066M
T1 sequence (P49146 1-381): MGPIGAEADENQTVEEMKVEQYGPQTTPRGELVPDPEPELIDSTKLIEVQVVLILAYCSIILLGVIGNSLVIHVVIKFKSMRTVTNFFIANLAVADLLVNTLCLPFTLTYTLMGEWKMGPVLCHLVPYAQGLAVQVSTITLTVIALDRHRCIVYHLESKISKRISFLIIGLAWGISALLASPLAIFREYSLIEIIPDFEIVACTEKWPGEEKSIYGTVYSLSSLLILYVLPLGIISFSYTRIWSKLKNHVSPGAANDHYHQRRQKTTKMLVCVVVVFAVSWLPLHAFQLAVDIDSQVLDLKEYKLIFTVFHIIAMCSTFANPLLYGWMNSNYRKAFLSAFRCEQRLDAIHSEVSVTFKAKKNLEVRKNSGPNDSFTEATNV
Experiment: Radioligand binding competition assay (RLB)
Conditions: Table 3; human 125I-PYY (1-36) 0.02 nM, Y2 receptor membranes; read-out: Ki
How it was run: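 Filtration format; Y2R membrane prep 0.5 μg/well; buffer 50 mM HEPES/5 mM MgCl2/1 mM CaCl2/0.2% ovalbumin pH 7.4; 2 h RT, shaking. Harvest on PEI-soaked GF/C, ice-cold HEPES/500 mM NaCl washes, scintillation count. IC50 by nonlinear fit.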

Row | SMILES | Ki [nM]
1 | CC[C@H](C)[C@H](NC(=O)[C@H](Cc1ccc(O)cc1)NC(=O)[C@H](Cc1ccc(O)cc1)NC(=O)[C@H](CCCNC(=N)N)NC(=O)[C@H](CCC(N)=O)NC(=O)[C@H](CC(C)C)NC(=O)[C@H](CCC(=O)O)NC(=O)[C@H](CCC(=O)O)NC(=O)[C@@H]1CCCN1C(=O)[C@H](CO)NC(=O)[C@H](C)NC(=O)[C@H](CC(=O)O)NC(=O)[C@H](CCC(=O)O)NC(=O)[C@H](CCC(=O)O)NC(=O)[C@@H]1CCCN1C(=O)[C@H](CCCCNC(=O)COCCOCCNC(=O)COCCOCCNC(=O)CC[C@H](NC(=O)CCCCCCCCCCCCCCCCC(=O)O)C(=O)O)NC(=O)[C@H](CCC(=O)O)NC(=O)[C@@H]1CCCN1C(=O)[C@H](C)NC(=O)CC(C)C)C(=O)N[C@@H](CO)C(=O)N[C@@H](CC(C)C)C(=O)N[C@@H](CCCNC(=N)N)C(=O)N[C@@H](Cc1c[nH]cn1)C(=O)N[C@@H](Cc1ccc(O)cc1)C(=O)N[C@@H](Cc1ccc(O)cc1)C(=O)N[C@@H](CC(N)=O)C(=O)N[C@@H](Cc1c[nH]c2ccccc12)C(=O)N[C@@H](CC(C)C)C(=O)N[C@H](C(=O)N[C@@H](CCCNC(=N)N)C(=O)N[C@@H](CCC(N)=O)C(=O)N[C@@H](CCCNC(=N)N)C(=O)N[C@@H](Cc1ccc(O)cc1)C(N)=O)[C@@H](C)O [Compound 191, N{alpha-4}-(3-methylbutanoyl)-N{epsilon-7}-[2-(2-{2-[2-(2-{2-[(4S)-4-carboxy-4-(17-carboxyheptadecanamido)butanamido]ethoxy}ethoxy)acetamido]ethoxy}ethoxy)acetamido]-[4A,7K,9E,18Q,22I,28Y,30W,31L]hPYY (4-36)] | 1.7
2 | CC(C)CC(=O)N[C@@H](C)C(=O)N1CCC[C@H]1C(=O)N[C@@H](CCC(=O)O)C(=O)N[C@@H](CCCCNC(=O)COCCOCCNC(=O)COCCOCCNC(=O)CC[C@H](NC(=O)CCCCCCCCCCCCCCCCC(=O)O)C(=O)O)C(=O)N1CCC[C@H]1C(=O)N[C@@H](CCC(=O)O)C(=O)N[C@@H](CCC(=O)O)C(=O)N[C@@H](CC(=O)O)C(=O)N[C@@H](C)C(=O)N[C@@H](C)C(=O)N1CCC[C@H]1C(=O)N[C@@H](C)C(=O)N[C@@H](CCC(=O)O)C(=O)N[C@@H](CC(C)C)C(=O)N[C@@H](CCC(N)=O)C(=O)N[C@@H](CCCNC(=N)N)C(=O)N[C@@H](Cc1ccc(O)cc1)C(=O)N[C@@H](Cc1ccc(O)cc1)C(=O)N[C@H](C(=O)N[C@@H](CO)C(=O)N[C@@H](CC(C)C)C(=O)N[C@@H](CCCNC(=N)N)C(=O)N[C@@H](Cc1c[nH]cn1)C(=O)N[C@@H](Cc1ccc(O)cc1)C(=O)N[C@@H](Cc1ccc(O)cc1)C(=O)N[C@@H](CC(N)=O)C(=O)N[C@@H](Cc1c[nH]c2ccccc12)C(=O)N[C@@H](CC(C)C)C(=O)N[C@H](C(=O)N[C@@H](CCCNC(=N)N)C(=O)N[C@@H](CCC(N)=O)C(=O)N[C@@H](CCCNC(=N)N)C(=O)N[C@@H](Cc1ccc(O)cc1)C(N)=O)[C@@H](C)O)C(C)C [Compound 192, N{alpha-4}-(3-methylbutanoyl)-N{epsilon-7}-[2-(2-{2-[2-(2-{2-[(4S)-4-carboxy-4-(17-carboxyheptadecanamido)butanamido]ethoxy}ethoxy)acetamido]ethoxy}ethoxy)acetamido]-[4A,7K,9E,13A,15A,18Q,22V,28Y,30W,31L]hPYY (4-36)] | 1.65
3 | CC(C)CC(=O)N[C@@H](C)C(=O)N1CCC[C@H]1C(=O)N[C@@H](C)C(=O)N[C@@H](CCCCNC(=O)COCCOCCNC(=O)COCCOCCNC(=O)CC[C@H](NC(=O)CCCCCCCCCCCCCCCCC(=O)O)C(=O)O)C(=O)N1CCC[C@H]1C(=O)N1CCC[C@H]1C(=O)N[C@@H](CCC(=O)O)C(=O)N[C@@H](CC(=O)O)C(=O)N[C@@H](C)C(=O)N[C@@H](CCC(=O)O)C(=O)N1CCC[C@H]1C(=O)N[C@@H](CCC(=O)O)C(=O)N[C@@H](CCC(=O)O)C(=O)N[C@@H](CC(C)C)C(=O)N[C@@H](CCC(N)=O)C(=O)N[C@@H](CCCNC(=N)N)C(=O)N[C@@H](Cc1ccc(O)cc1)C(=O)N[C@@H](Cc1ccc(O)cc1)C(=O)N[C@H](C(=O)N[C@@H](CO)C(=O)N[C@@H](CC(C)C)C(=O)N[C@@H](CCCNC(=N)N)C(=O)N[C@@H](Cc1c[nH]cn1)C(=O)N[C@@H](Cc1ccc(O)cc1)C(=O)N[C@@H](Cc1ccc(O)cc1)C(=O)N[C@@H](CC(N)=O)C(=O)N[C@@H](Cc1c[nH]c2ccccc12)C(=O)N[C@@H](CC(C)C)C(=O)N[C@H](C(=O)N[C@@H](CCCNC(=N)N)C(=O)N[C@@H](CCC(N)=O)C(=O)N[C@@H](CCCNC(=N)N)C(=O)N[C@@H](Cc1ccc(O)cc1)C(N)=O)[C@@H](C)O)C(C)C [Compound 196, N{alpha-4}-(3-methylbutanoyl)-N{epsilon-7}-[2-(2-{2-[2-(2-{2-[(4S)-4-carboxy-4-(17-carboxyheptadecanamido)butanamido]ethoxy}ethoxy)acetamido]ethoxy}ethoxy)acetamido]-[4A,6A,7K,9P,13E,18Q,22V,28Y,30W,31L]hPYY (4-36)] | 0.98

Results, then the molecule that gave them:

Row | Ki [nM] | SMILES
4 | 0.87 | CC(C)CC(=O)N[C@@H](C)C(=O)N1CCC[C@H]1C(=O)N[C@@H](C)C(=O)N[C@@H](CCCCNC(=O)COCCOCCNC(=O)COCCOCCNC(=O)CC[C@H](NC(=O)CCCCCCCCCCCCCCCCC(=O)O)C(=O)O)C(=O)N1CCC[C@H]1C(=O)N[C@@H](CCC(=O)O)C(=O)N[C@@H](C)C(=O)N[C@@H](CC(=O)O)C(=O)N[C@@H](C)C(=O)N[C@@H](CO)C(=O)N1CCC[C@H]1C(=O)N[C@@H](CCC(=O)O)C(=O)N[C@@H](CCC(=O)O)C(=O)N[C@@H](CC(C)C)C(=O)N[C@@H](CCC(N)=O)C(=O)N[C@@H](CCCNC(=N)N)C(=O)N[C@@H](Cc1ccc(O)cc1)C(=O)N[C@@H](Cc1ccc(O)cc1)C(=O)N[C@H](C(=O)N[C@@H](CCC(=O)O)C(=O)N[C@@H](CC(C)C)C(=O)N[C@@H](CCCNC(=N)N)C(=O)N[C@@H](Cc1c[nH]cn1)C(=O)N[C@@H](Cc1ccc(O)cc1)C(=O)N[C@@H](Cc1ccc(O)cc1)C(=O)N[C@@H](CC(N)=O)C(=O)N[C@@H](Cc1c[nH]c2ccccc12)C(=O)N[C@@H](CC(C)C)C(=O)N[C@H](C(=O)N[C@@H](CCCNC(=N)N)C(=O)N[C@@H](CCC(N)=O)C(=O)N[C@@H](CCCNC(=N)N)C(=O)N[C@@H](Cc1ccc(O)cc1)C(N)=O)[C@@H](C)O)C(C)C [Compound 197, N{alpha-4}-(3-methylbutanoyl)-N{epsilon-7}-[2-(2-{2-[2-(2-{2-[(4S)-4-carboxy-4-(17-carboxyheptadecanamido)butanamido]ethoxy}ethoxy)acetamido]ethoxy}ethoxy)acetamido]-[4A,6A,7K,9E,10A,18Q,22V,23E,28Y,30W,31L]hPYY (4-36)]
5 | 5.69 | CC(C)CC(=O)N[C@@H](C)C(=O)N1CCC[C@H]1C(=O)N[C@@H](CCC(=O)O)C(=O)N[C@@H](CCCCNC(=O)COCCOCCNC(=O)COCCOCCNC(=O)CC[C@H](NC(=O)CCCCCCCCCCCCCCCCC(=O)O)C(=O)O)C(=O)N1CCC[C@H]1C(=O)N[C@@H](CCC(=O)O)C(=O)N[C@@H](CCC(=O)O)C(=O)N[C@@H](CC(=O)O)C(=O)N[C@@H](C)C(=O)N[C@@H](CCC(=O)O)C(=O)N1CCC[C@H]1C(=O)N[C@@H](CCC(=O)O)C(=O)N[C@@H](CCC(=O)O)C(=O)N[C@H](C(=O)N[C@@H](CCC(N)=O)C(=O)N[C@@H](CCCNC(=N)N)C(=O)N[C@@H](Cc1ccc(O)cc1)C(=O)N[C@@H](Cc1ccc(O)cc1)C(=O)N[C@H](C(=O)N[C@@H](CO)C(=O)N[C@@H](CC(C)C)C(=O)N[C@@H](CCCNC(=N)N)C(=O)N[C@@H](Cc1c[nH]cn1)C(=O)N[C@@H](Cc1ccc(O)cc1)C(=O)N[C@@H](Cc1ccc(O)cc1)C(=O)N[C@@H](CC(N)=O)C(=O)N[C@@H](Cc1c[nH]c2ccccc12)C(=O)N[C@@H](CC(C)C)C(=O)N[C@H](C(=O)N[C@@H](CCCNC(=N)N)C(=O)N[C@@H](CCC(N)=O)C(=O)N[C@@H](CCCNC(=N)N)C(=O)N[C@@H](Cc1ccc(O)cc1)C(N)=O)[C@@H](C)O)C(C)C)[C@@H](C)O [Compound 199, N{alpha-4}-(3-methylbutanoyl)-N{epsilon-7}-[2-(2-{2-[2-(2-{2-[(4S)-4-carboxy-4-(17-carboxyheptadecanamido)butanamido]ethoxy}ethoxy)acetamido]ethoxy}ethoxy)acetamido]-[4A,7K,9E,13E,17T,18Q,22V,28Y,30W,31L]hPYY (4-36)]
6 | 3.35 | CC(C)CC(=O)N[C@@H](C)C(=O)N1CCC[C@H]1C(=O)N[C@@H](CCC(=O)O)C(=O)N[C@@H](CCCCNC(=O)COCCOCCNC(=O)COCCOCCNC(=O)CC[C@H](NC(=O)CCCCCCCCCCCCCCCCC(=O)O)C(=O)O)C(=O)N1CCC[C@H]1C(=O)N[C@@H](CCC(=O)O)C(=O)N[C@@H](CCC(=O)O)C(=O)N[C@@H](CCC(=O)O)C(=O)N[C@@H](C)C(=O)N[C@@H](CO)C(=O)N1CCC[C@H]1C(=O)N[C@@H](CCC(=O)O)C(=O)N[C@@H](CCC(=O)O)C(=O)N[C@H](C(=O)N[C@@H](CCC(N)=O)C(=O)N[C@@H](CCCNC(=N)N)C(=O)N[C@@H](Cc1ccc(O)cc1)C(=O)N[C@@H](Cc1ccc(O)cc1)C(=O)N[C@H](C(=O)N[C@@H](CO)C(=O)N[C@@H](CC(C)C)C(=O)N[C@@H](CCCNC(=N)N)C(=O)N[C@@H](Cc1c[nH]cn1)C(=O)N[C@@H](Cc1ccc(O)cc1)C(=O)N[C@@H](Cc1ccc(O)cc1)C(=O)N[C@@H](CC(N)=O)C(=O)N[C@@H](Cc1c[nH]c2ccccc12)C(=O)N[C@@H](CC(C)C)C(=O)N[C@H](C(=O)N[C@@H](CCCNC(=N)N)C(=O)N[C@@H](CCC(N)=O)C(=O)N[C@@H](CCCNC(=N)N)C(=O)N[C@@H](Cc1ccc(O)cc1)C(N)=O)[C@@H](C)O)C(C)C)C(C)C [Compound 204, N{alpha-4}-(3-methylbutanoyl)-N{epsilon-7}-[2-(2-{2-[2-(2-{2-[(4S)-4-carboxy-4-(17-carboxyheptadecanamido)butanamido]ethoxy}ethoxy)acetamido]ethoxy}ethoxy)acetamido]-[4A,7K,9E,11E,17V,18Q,22V,28Y,30W,31L]hPYY (4-36)] (Isovaleryl-APEK([AEEA-AEEA-γGlu-C18 diacid])PEEEASPEEVQRYYVSLRHYYNWLTRQRY-NH2)
